One block for each molecule: values may come before it.
Legend:
[1] = biological target: ACLY (Homo sapiens, UniProt P53396); conditions: description of the Tocris compound; read-out: IC50 as ACLY inhibitor; cited from earlier work
[2] = test system: pACLY (S455); experiment: ELISA of pACLY (S455) / ACLY enzymatic activity in PANC-1 cells; type: cell-based, human; conditions: 5 μM
Protocol: ELISA assay was used to evaluate the effect of GS compounds on protein activity levels in PANC-1 cancer cells. PANC-1 cells were serum-starved overnight and then treated with rIGF1 (100 ng/mL) for 24 hours, with or without GS27 (5 μM). The levels of the following proteins were evaluated by ELISA assay: a) p70 S6 (T389) (cat no. 54164C, Cell Signaling); b) pAKT (S473), (cat no. 80895, Cell Signaling); c) pACLY (S455), (cat no. okag1672, Avivasysbio); d) pAMPK (T172) (cat no. 7959C, Cell Signaling) and e) p65/NFKB (S536), (cat no. 7173, Cell Signaling).
PANC-1 is a human pancreatic ductal adenocarcinoma cell line derived from the carcinoma of a person.
The molecular mechanism of action of GS27, a compound that has exerted potent anti-cancer activity in different cancer cell lines including pancreatic cancer cells, was investigated. Oleacein has been implicated to have anti-inflammatory and metabolic effects, thus the potential effects of GS27 in different metabolic and inflammatory pathways were evaluated. Specifically, the protein levels of p70 S6 (T389), pAKT (S473), pACLY (S455), pAMPK (T172) and p65/NFKB (S536) were evaluated by ELISA assay in PANC-1 pancreatic cancer cells treated with 5 μM GS27. GS27 reduced p70 S6 and AKT phosphorylation levels, while it increased AMPK phosphorylation.
The effects of different GS compounds on ACLY enzymatic activity were evaluated by ELISA assay in PANC-1 pancreatic cancer cells. […] This finding is unexpected, since GS21 has a very similar structure with GS27, with the only difference being the presence of an oxygen atom in ester GS21 instead of a sulfur atom in thioester GS27.

[3] = test system: MCF-7 ER+ breast cancer cells; experiment: XTT cell growth assay, MCF-7 ER+; type: cell-based, human; conditions: NS = not statistically significant
Method in brief: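 MCF-7 ER+ cells grown 24 h in DMEM, then given 5, 10 or 50 μM compound in serum-free DMEM for 24 h. XTT reagent added for 4 h. Absorbance read at 450 nm with 630 nm reference; serum-free DMEM alone as negative control.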

[4] = test system: IL-1β; experiment: ELISA of IL-1β in PMA/LPS-treated THP-1 cells; type: cell-based, human; conditions: THP-1, PMA then LPS 100 ng/ml 24 hours, 5 uM compound added 2 hours before LPS
Protocol: (§1) Human monocytes (THP-1, ATCC) were cultured in RPMI 1640 media supplemented with HEPES buffer (10 mM), sodium pyruvate (1 mM), glucose (4.5 g/L), fetal bovine serum (10%), penicillin (100 U/mL), streptomycin (100 μg/mL), and 2-mercaptoethanol (0.05 mM). THP-1 cells were treated with PMA (100 ng/ml) for 48 hours and then washed and rested for 24 hours in PMA-free media. These cells were treated with LPS (100 ng/ml) for 24 hours in the presence or absence of 5 uM of […] compounds (added 2 hours before LPS). Cell culture supernatants were collected and IL-1β (cat. No DLB50, R&D Systems), TNF-α (cat. no. DTA00D, R&D Systems) and IL-6 (cat. No D6050, R&D Systems) protein levels were evaluated by ELISA assay.

[5] = test system: IL-6; experiment: ELISA of IL-6 in PMA/LPS-treated THP-1 cells; type: cell-based, human; conditions: THP-1, PMA then LPS 100 ng/ml 24 hours, 5 uM compound added 2 hours before LPS
Protocol: as §1

[6] = test system: TNF-α; experiment: ELISA of TNF-α in PMA/LPS-treated THP-1 cells; type: cell-based, human; conditions: THP-1, PMA then LPS 100 ng/ml 24 hours, 5 uM compound added 2 hours before LPS
Protocol: as §1

[7] = Deoxyribose degradation assay (hydroxyl radical scavenging); type: biochemical; conditions: NS = not statistically significant
Method in brief: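 Hydroxyl radicals from Fenton's reaction degrade 2-deoxyribose. Scavenging is measured as inhibition of this oxidation, read spectrophotometrically as pink chromogen absorbance at 532 nm.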

[8] = after olive oil consumption, literature; cited from earlier work
[9] = test system: HepG2 liver cancer tumor; experiment: HepG2 xenograft mouse model; type: in vivo, nu/nu mice; conditions: 20 mg/kg i.p. every 5 days, until 20 days post-treatment
Protocol: The effect of GS27 on liver cancer tumor growth in mice was evaluated in a HepG2 xenograft mouse model. HepG2 is a human liver cancer cell line, obtained from ATCC (cat. No HB-8065). Since hepatocellular carcinoma is often treated with the chemotherapeutic agent doxorubicin and embolization, results were compared to those obtained with doxorubicin.
Xenograft tumors were generated by injecting HepG2 liver cancer cells (2.5×10^6) into the right flank of female nu/nu mice (Charles River Laboratories). All mice developed tumors in 10 days with size of approximately 100 mm3. For each experiment, mice were randomly distributed into equal groups (4 mice per group) that were untreated, or treated by intraperitoneal injections every 5 days with 20 mg/kg GS27 or doxorubicin. Tumor volume (average, SD) was evaluated until 20 days post-treatment.

[10] = test system: LNCaP prostate cancer cells; conditions: literature; cited from earlier work

ACLY, sequence (P53396 whole entry): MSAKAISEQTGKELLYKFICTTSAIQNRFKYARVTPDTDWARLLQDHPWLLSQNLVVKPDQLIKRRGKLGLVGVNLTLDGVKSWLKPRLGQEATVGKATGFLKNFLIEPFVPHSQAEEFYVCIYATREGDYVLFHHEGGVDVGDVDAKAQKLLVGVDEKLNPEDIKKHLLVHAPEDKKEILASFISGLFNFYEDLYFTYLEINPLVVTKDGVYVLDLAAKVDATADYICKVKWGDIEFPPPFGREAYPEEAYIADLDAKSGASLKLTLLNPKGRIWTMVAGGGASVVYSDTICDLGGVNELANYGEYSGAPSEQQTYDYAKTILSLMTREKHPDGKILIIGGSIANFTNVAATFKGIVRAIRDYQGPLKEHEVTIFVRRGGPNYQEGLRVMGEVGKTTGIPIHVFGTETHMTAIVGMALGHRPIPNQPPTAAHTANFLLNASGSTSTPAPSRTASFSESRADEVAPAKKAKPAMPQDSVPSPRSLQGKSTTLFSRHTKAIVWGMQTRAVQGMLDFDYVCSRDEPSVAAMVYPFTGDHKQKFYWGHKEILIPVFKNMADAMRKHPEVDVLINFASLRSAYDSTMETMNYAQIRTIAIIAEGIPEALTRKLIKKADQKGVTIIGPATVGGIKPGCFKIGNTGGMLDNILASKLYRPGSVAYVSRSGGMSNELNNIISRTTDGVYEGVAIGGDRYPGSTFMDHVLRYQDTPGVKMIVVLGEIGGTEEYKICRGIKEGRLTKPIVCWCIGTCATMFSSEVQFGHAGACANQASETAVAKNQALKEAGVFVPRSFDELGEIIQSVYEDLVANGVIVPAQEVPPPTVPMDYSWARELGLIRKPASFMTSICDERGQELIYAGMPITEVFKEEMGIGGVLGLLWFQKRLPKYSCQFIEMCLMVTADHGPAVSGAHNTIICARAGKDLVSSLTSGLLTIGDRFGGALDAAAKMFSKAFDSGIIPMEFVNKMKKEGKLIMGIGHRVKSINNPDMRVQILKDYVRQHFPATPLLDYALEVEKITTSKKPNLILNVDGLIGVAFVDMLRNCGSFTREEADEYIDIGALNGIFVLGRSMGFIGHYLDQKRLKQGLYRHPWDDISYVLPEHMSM

SMILES: COc1ccc(-c2ccccc2)cc1NS(=O)(=O)c1cc(Cl)cc(Cl)c1O [BMS303141]
- IC50 [1]: 130 nM

- Deoxyribose Degradation Assay IC50 [7]: 16.2 μg extract/mL
SMILES: C/C=C(/C=O)[C@@H](CC=O)CC(=O)OCc1cc2ccccc2[nH]1 [GS25, (3S,4E)-4-formyl-3-(2-oxoethyl)-4-hexenoic acid (1H-indol-2-yl)methyl ester]
- ACLY enzymatic activity (ELISA) [2]: small effect
- Effectiveness to suppress MCF7 cell growth (cell growth inhibition) ([3]; 50 uM, 24 h): best efficacy
- inhibition at 50 µM ([3]; Homo sapiens, MCF7, 24 h, read-out: Effectiveness to suppress MCF7 cell growth (cell growth inhibition)): 88.4%
- IL-1β protein levels [4]: reducing substantially
- IL-6 protein levels [5]: effective for reducing
- TNF-α protein levels [6]: better effect on the suppression

SMILES: OCCc1ccc(O)c(O)c1 [Hydroxytyrosol]
- time of peak plasma levels after ingestion [8]: 1 h

SMILES: COc1cccc2c1C(=O)c1c(O)c3c(c(O)c1C2=O)C[C@@](O)(C(=O)CO)C[C@@H]3O[C@H]1C[C@H](N)[C@H](O)[C@H](C)O1 [doxorubicin, reference compound]
- reduction in the tumor size, HepG2 liver cancer [9]: 13%

SMILES: CNC(=O)c1ccc(N2C(=S)N(c3ccc(C#N)c(C(F)(F)F)c3)C(=O)C2(C)C)cc1F [enzalutamide]
- concentration found to reduce LNCaP prostate cancer cell growth [10]: 10 µM

SMILES: OCCc1ccc(O)cc1 [tyrosol]
- time of peak plasma levels after ingestion [8]: 1 h
